Experimental data taken from patent US7084176B2, “N-arylphenylacetamide derivatives and medicinal compositions containing the same” (Dainippon Pharmaceutical Co., Ltd., priority 2001, dated 2006).
Each block holds one compound with its values, some of them ahead of it.

Legend:
male Std:ddY mice = experiment: Phenyl-1,4-benzoquinone-induced writhing test; type: in vivo; settings: Mus musculus, po
How it was run: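 Compounds were given orally suspended in 0.5% tragacanth; subcutaneous controls got saline with 10% Tween 80 and 10% ethanol. Writhing counts after phenyl-1,4-benzoquinone were compared with vehicle controls as % inhibition [(A−B)/A]×100. ED50 (mg/kg) was derived by logit analysis.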

Jcl:SD strain male rats = experiment: Study of pungency (eye wiping test); type: in vivo; settings: a drop into the eye of rats, counted for 3 minutes, average ± S.E.M.
Procedure: Experiment 2: Study of Pungency (Eye Wiping Test)
The pungency of the test compounds were studied referring to the method of Jancso et al. [Acta Physiol. Acad. Sci. Hung., 19, 113–131 (1961)] and the method of Szallasi et al. [Brit. J. Pharmacol., 119, 283–290 (1996)]. A test compound was dissolved in a physiological saline solution containing 10% ethanol and 10% Tween 80 into various concentrations (μg/ml), and a drop of the solution thereof was added dropwise into the eye of Jcl:SD strain male rats (5 to 25 […] per group, body weight; 220 to 280 g). Then, the number of the protective wiping movements with forefoot was counted for 3 minutes, and was considered as an index for pungency. The test results are expressed as average value±S.E.M., and the statistical significant differences between each test compound-treated group and the control group were analyzed using non-parametric Dunnett's multiple range test, and p<0.05 was considered as significant difference.

[1] = literature report; cited from earlier work
VR1 receptor = settings: animal pain model; VR1 receptor antagonist; cited from earlier work

Number of wiping movements (Jcl:SD strain male rats; concentration 500 μg/ml): no significant increase | Number of wiping movements (Jcl:SD strain male rats; concentration 500 μg/ml, listed as Ex. 225): 4.4 ± 2.1 | Number of wiping movements (Jcl:SD strain male rats; concentration 1000 μg/ml): 1.6 ± 1.2
Compound: COc1cc(CC(=O)Nc2ccc3c(c2)C(=O)C(Cc2ccccc2)CC3)ccc1OCCN (stereo not shown) [Example 225, 4-(2-aminoethoxy)-3-methoxy-N-[1-oxo-2-phenylmethyl-1,2,3,4-tetrahydronaphthalen-7-yl]phenylacetamide]
inhibition in vivo at 10 mg/kg (male Std:ddY mice; 1 h, orally administered at a dose of 10 mg/kg, 60 minutes before PBQ, read-out: Inhibitory percentage (%)): 73.5% | ED50 (male Std:ddY mice; oral administration, writhing inhibition, logit analysis, read-out: ED50 (mg/kg po)): 4.79 mg/kg

Compound: CCCCCc1ccc(C(=O)NCc2ccc(O)c(OC)c2)cc1 [N-(4-hydroxy-3-methoxybenzyl)-4-pentylbenzamide]
analgesic effect [1]: no analgesic effect

Compound: Oc1cc2c(cc1O)CN(C(=S)NCCc1ccc(Cl)cc1)CCC2 [capsazepin]
analgesic effect (VR1 receptor): significant analgesic effect
